The values below come from PMC4643811, “Structural basis of Lewis^b antigen binding by the Helicobacter pylori adhesin BabA” (Science Advances, 2015).

By Kd is commonly meant the free concentration of one partner at which half of the binding sites on the other are occupied at equilibrium, for simple one-to-one binding.

The target of test [1] is T1, BabA (extracellular domain, H. pylori J99) (Helicobacter pylori, UniProt Q9ZKV2).
T1 construct: N-terminal extracellular domain, amino acids 10-527 of mature BabA; three C-terminal tags (6xLys-c-Myc-6xHis) kept; periplasmic expression in E. coli XL10 Gold; beta-barrel membrane domain absent
Briefly: isothermal titration calorimetry. In kind it is binding.

In test [2] the target is BabA (extracellular domain, H. pylori J99) (Helicobacter pylori, UniProt Q9ZKV2, N226A). The note with it: pH 7.4, 25°C; protein 0.25 mM, glycan 10 mM.

Read-outs that look alike come from different tables or passages of the source.

T1 sequence (Q9ZKV2 entry or part of it): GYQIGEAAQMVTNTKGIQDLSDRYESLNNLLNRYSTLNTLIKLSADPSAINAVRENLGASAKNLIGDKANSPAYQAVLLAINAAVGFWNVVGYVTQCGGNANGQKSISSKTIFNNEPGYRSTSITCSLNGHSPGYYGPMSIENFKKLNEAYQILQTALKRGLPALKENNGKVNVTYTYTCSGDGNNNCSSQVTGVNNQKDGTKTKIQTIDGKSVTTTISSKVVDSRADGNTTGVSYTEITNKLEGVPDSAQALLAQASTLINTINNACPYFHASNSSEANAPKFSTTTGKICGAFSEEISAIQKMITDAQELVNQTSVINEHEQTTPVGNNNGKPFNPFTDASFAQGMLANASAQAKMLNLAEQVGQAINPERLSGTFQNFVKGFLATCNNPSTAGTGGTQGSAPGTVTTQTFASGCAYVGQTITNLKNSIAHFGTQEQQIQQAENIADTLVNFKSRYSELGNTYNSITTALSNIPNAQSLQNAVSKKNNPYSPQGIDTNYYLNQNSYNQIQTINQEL
Chain of BabA (extracellular domain, H. pylori J99) (Helicobacter pylori, UniProt Q9ZKV2, N226A) (Q9ZKV2 30-547 N226A): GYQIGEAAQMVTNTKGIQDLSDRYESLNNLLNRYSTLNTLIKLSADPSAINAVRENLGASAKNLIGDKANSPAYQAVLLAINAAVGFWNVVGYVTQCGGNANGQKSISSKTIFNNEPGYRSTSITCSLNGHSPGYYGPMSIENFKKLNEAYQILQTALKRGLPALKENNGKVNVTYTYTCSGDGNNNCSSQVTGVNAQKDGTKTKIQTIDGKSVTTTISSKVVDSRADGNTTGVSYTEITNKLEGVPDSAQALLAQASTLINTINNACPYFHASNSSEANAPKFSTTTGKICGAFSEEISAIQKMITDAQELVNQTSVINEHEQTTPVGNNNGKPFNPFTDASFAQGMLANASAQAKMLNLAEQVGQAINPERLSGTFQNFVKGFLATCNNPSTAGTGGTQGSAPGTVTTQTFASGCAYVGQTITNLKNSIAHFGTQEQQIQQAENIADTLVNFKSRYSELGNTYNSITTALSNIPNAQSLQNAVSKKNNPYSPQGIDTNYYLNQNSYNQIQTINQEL

On to `CC(=O)N[C@H]1[C@H](O[C@H]2[C@@H](O)[C@@H](CO)O[C@@H](O[C@H]3[C@H](O)[C@@H](O)C(O)O[C@@H]3CO)[C@@H]2O)O[C@H](CO)[C@@H](O[C@@H]2O[C@@H](C)[C@@H](O)[C@@H](O)[C@@H]2O)[C@@H]1O[C@@H]1O[C@H](CO)[C@H](O)[C@H](O)[C@H]1O[C@@H]1O[C@@H](C)[C@@H](O)[C@@H](O)[C@@H]1O` (stereo partly drawn) [Le^b], for which the Kd in test [1] (pH 7.4, 20 mM tris-Cl, 300 mM NaCl, 25°C, single site) was around 252 µM; in test [2], around 582 µM.

As for H-1 antigen, the equilibrium dissociation constant (Kd) in test [1] (pH 7.4, 25°C, protein 0.25 mM, glycan 10 mM, read-out: KD) was around 617 µM.
